In ChEMBL document CHEMBL4602617, “Discovery and optimization of heteroaryl piperazines as potent and selective PI3Kδ inhibitors” (Bioorg Med Chem Lett, 2020):

Columns and labels:
[1] = target: 5-hydroxytryptamine receptor 2C (Homo sapiens) (UniProt P28335); assay: Displacement of [3H]mesulergine from human recombinant 5HT2C receptor expressed in CHOK1 cells at 10 uM incubated for 60 mins by radiometric scintillation assay relative to control; type: cell-based; conditions: CHO-K1
[2] = target: Ribosomal protein S6 kinase alpha-3 (Homo sapiens, UniProt P51812); assay: Inhibition of recombinant full length human His-tagged RSK2 expressed in baculovirus expression system using serine/threonine-6 peptide as substrate incubated for 60 mins in presence of ATP by Z'-LYTE assay
Rattus norvegicus [3] = species on record: Rattus norvegicus; assay: Displacement of [3H]hemicholinium-3 from choline transporter in Wistar rat striatal membranes at 10 uM after 20 mins by radiometric scintillation analysis relative to control; type: cell membranes; conditions: Striatum, Membrane
[4] = target: Histamine H3 receptor (Homo sapiens) (UniProt Q9Y5N1); assay: Displacement of [3H]N-alpha-Methylhistamine from full length human recombinant histamine H3 receptor expressed in CHO-K1 cells at 10 uM measured after 120 mins by radiometric scintillation analysis relative to control; type: cell-based
Rattus norvegicus [5] = species on record: Rattus norvegicus; assay: Displacement of [3H]CGP-54626 from GABAB in Wistar rat whole brain at 10 uM incubated for 20 mins by radiometric scintillation analysis relative to control; type: tissue-based
[6] = target: D(1A) dopamine receptor (Homo sapiens) (UniProt P21728); assay: Displacement of [3H]SCH-23390 from recombinant full length human recombinant dopamine D1 receptor expressed in CHO cells at 10 uM measured after 120 mins by radiometric scintillation analysis relative to control; type: cell-based
[7] = target: Gastrin/cholecystokinin type B receptor (Homo sapiens) (UniProt P32239); assay: Displacement of [125I]CCK-8 from recombinant full length human recombinant CCK2 expressed in Chem-1 cells at 10 uM measured after 3 hrs by radiometric scintillation analysis relative to control; type: cell-based
[8] = target: Adenosine receptor A1 (Homo sapiens) (UniProt P30542); assay: Displacement of [3H]DPCPX from full length recombinant human A1AR expressed in CHO cell membranes at 10 uM measured after 90 mins by scintillation counting method relative to control
[9] = target: T1, Mitogen-activated protein kinase 14 (Homo sapiens, UniProt Q16539); assay: Inhibition of recombinant full length human p38alpha expressed in Escherichia coli at 10 uM using MBP as substrate after 30 mins by radiometric scintillation analysis relative to control
[10] = target: Tyrosine-protein kinase CSK (Homo sapiens, UniProt P41240); assay: Inhibition of recombinant full length human His-tagged CSK expressed in Escherichia coli expression system using tyrosine-2 peptide as substrate incubated for 60 mins in presence of ATP by Z'-LYTE assay
[11] = target: Casein kinase I isoform epsilon (Homo sapiens, UniProt P49674); assay: Inhibition of recombinant human full-length GST-tagged CSNK1E expressed in insect cells using FRET-labeled Ser/Thr 11 peptide as substrate measured after 1 hr in presence of ATP by Z'-lyte assay
[12] = target: Epidermal growth factor receptor (Homo sapiens, UniProt P00533, L858R/T790M); assay: Inhibition of human recombinant GST-tagged EGFR L858R/T790M mutant expressed in baculovirus expression system using tyrosine 4 peptide as substrate after 60 mins in presence of ATP FRET based Z'-LYTE assay
[13] = target: Tyrosine-protein kinase Fes/Fps (Homo sapiens, UniProt P07332); assay: Inhibition of recombinant His-tagged full length human FES expressed in baculovirus expression system using Tyr 01 peptide as substrate after 1 hr by Z'-LYTE assay
[14] = target: Fibroblast growth factor receptor 4 (Homo sapiens, UniProt P22455); assay: Inhibition of recombinant human His-tagged FGFR4 catalytic domain ([…]) expressed in baculovirus expression system using tyrosine-4 peptide as substrate incubated for 60 mins in presence of ATP by Z'-LYTE assay
[15] = target: Homeodomain-interacting protein kinase 1 (Homo sapiens, UniProt Q86Z02); assay: Inhibition of recombinant human GST-tagged HIPK1 catalytic domain expressed in baculovirus expression system using serine/threonine-9 peptide as substrate incubated for 60 mins in presence of ATP by Z'-LYTE assay
[16] = target: T1, Mitogen-activated protein kinase 14; assay: Inhibition of recombinant full length GST-tagged human inactive MAPK14 expressed in Escherichia coli using Ser/Thr 04 as substrate after 1 hr in presence of ATP by Z'LYTE assay
[17] = target: Mitogen-activated protein kinase 8 (Homo sapiens, UniProt P45983); assay: Inhibition of recombinant full length human His-tagged JNK1alpha1 expressed in baculovirus expression system using serine/threonine-4 peptide as substrate incubated for 60 mins in presence of ATP by Z'-LYTE assay
[18] = target: MAP/microtubule affinity-regulating kinase 4 (Homo sapiens, UniProt Q96L34); assay: Inhibition of recombinant full length human GST-tagged MARK4 expressed in baculovirus expression system using serine/threonine-25 peptide as substrate incubated for 60 mins in presence of ATP by Z'-LYTE assay
[19] = target: Serine/threonine-protein kinase pim-2 (Homo sapiens, UniProt Q9P1W9); assay: Inhibition of recombinant full length GST-tagged human PIM2 expressed in baculovirus expression system using Ser/Thr 07 as substrate after 1 hr in presence of ATP by Z'-LYTE assay
[20] = target: Protein kinase C delta type (Homo sapiens, UniProt Q05655); assay: Inhibition of recombinant full length human GST-tagged PRKCD expressed in insect expression system using serine/threonine-7 peptide as substrate incubated for 60 mins in presence of ATP by Z'-LYTE assay
[21] = target: Protein kinase C gamma type (Homo sapiens, UniProt P05129); assay: Inhibition of recombinant full length human GST-tagged PRKCG expressed in insect expression system using serine/threonine-7 peptide as substrate incubated for 60 mins in presence of ATP by Z'-LYTE assay
[22] = target: Protein-tyrosine kinase 2-beta (Homo sapiens, UniProt Q14289); assay: Inhibition of recombinant full length human N-terminal GST-tagged PTK2B cytoplasmic domain expressed in baculovirus expression system using tyr01 peptide as substrate incubated for 60 mins in presence of ATP by Z'-LYTE assay
[23] = target: Ribosomal protein S6 kinase alpha-4 (Homo sapiens, UniProt O75676); assay: Inhibition of recombinant full length human GST-tagged RPS6KA4 expressed in baculovirus expression system using ser/Thr01 peptide as substrate incubated for 60 mins in presence of ATP by Z'-LYTE assay
[24] = target: Serine/threonine-protein kinase SIK2 (Homo sapiens, UniProt Q9H0K1); assay: Inhibition of recombinant full length GST-tagged human SNF1LK2 expressed in baculovirus expression system using Ser/Thr 25 as substrate in presence of ATP after 1 hr by Z'LYTE assay
[25] = target: Serine/threonine-protein kinase 25 (Homo sapiens, UniProt O00506); assay: Inhibition of recombinant full length human GST-tagged YSK1 expressed in baculovirus expression system using serine/threonine-7 peptide as substrate incubated for 60 mins in presence of ATP by Z'-LYTE assay
[26] = target: Tyrosine-protein kinase receptor TYRO3 (Homo sapiens, UniProt Q06418); assay: Inhibition of recombinant human GST-tagged RSE catalytic domain (451 to 890 residues) expressed in baculovirus expression system using tyrosine-2 peptide as substrate incubated for 60 mins in presence of ATP by Z'-LYTE assay

T1 sequence (Q16539 whole entry): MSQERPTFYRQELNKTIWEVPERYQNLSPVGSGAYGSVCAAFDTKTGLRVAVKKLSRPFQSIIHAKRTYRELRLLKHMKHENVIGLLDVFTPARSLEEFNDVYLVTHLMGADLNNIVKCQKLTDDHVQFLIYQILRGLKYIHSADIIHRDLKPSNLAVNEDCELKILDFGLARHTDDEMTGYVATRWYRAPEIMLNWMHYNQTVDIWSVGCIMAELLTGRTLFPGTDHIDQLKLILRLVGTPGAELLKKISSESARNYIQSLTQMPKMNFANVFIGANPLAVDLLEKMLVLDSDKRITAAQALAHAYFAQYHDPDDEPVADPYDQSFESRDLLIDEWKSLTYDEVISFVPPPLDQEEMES
Serine/threonine-protein kinase pim-2, sequence (Q9P1W9 whole entry): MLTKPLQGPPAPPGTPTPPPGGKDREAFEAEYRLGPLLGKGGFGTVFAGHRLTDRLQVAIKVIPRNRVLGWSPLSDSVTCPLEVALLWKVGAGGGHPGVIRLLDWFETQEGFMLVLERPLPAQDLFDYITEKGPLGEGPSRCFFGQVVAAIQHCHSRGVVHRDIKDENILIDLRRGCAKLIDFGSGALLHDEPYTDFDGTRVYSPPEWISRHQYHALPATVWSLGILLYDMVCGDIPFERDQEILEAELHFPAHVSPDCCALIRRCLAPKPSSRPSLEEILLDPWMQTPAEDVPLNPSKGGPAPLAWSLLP
Adenosine receptor A1 (Homo sapiens), sequence (P30542 whole entry): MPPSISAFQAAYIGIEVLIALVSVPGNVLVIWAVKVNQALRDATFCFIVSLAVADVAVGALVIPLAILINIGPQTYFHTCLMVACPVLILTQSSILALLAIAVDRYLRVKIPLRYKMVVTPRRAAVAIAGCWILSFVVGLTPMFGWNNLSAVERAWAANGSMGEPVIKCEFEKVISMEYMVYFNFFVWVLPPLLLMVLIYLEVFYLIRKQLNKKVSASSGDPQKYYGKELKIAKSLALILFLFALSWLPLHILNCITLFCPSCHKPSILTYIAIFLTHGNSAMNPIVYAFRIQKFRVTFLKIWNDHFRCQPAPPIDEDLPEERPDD
Protein-tyrosine kinase 2-beta, sequence (Q14289 whole entry, the tested form may be a part): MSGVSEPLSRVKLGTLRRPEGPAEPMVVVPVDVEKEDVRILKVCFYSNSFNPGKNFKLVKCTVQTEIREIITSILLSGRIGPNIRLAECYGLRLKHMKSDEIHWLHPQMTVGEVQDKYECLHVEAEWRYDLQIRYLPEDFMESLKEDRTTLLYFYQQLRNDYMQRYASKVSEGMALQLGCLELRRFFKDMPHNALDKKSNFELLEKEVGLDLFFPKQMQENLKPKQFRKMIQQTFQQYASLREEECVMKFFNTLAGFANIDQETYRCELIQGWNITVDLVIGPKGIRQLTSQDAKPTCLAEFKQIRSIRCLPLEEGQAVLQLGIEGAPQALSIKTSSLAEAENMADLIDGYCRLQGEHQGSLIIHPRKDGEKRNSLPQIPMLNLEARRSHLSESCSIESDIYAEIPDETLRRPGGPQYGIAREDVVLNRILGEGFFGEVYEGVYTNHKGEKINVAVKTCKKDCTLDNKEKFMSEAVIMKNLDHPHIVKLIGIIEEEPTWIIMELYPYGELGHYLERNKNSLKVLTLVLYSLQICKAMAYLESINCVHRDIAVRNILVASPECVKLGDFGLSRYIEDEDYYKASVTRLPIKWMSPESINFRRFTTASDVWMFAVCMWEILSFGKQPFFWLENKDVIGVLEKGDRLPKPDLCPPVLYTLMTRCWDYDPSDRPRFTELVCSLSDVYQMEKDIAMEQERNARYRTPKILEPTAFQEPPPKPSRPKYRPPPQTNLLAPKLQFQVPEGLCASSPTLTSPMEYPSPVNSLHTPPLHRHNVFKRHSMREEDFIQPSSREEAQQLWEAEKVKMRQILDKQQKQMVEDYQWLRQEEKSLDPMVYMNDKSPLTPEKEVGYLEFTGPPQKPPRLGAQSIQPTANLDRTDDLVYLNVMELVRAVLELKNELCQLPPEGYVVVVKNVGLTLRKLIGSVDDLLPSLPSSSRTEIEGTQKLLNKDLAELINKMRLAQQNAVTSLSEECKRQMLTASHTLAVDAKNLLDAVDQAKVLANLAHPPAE
Ribosomal protein S6 kinase alpha-3, sequence (P51812 whole entry): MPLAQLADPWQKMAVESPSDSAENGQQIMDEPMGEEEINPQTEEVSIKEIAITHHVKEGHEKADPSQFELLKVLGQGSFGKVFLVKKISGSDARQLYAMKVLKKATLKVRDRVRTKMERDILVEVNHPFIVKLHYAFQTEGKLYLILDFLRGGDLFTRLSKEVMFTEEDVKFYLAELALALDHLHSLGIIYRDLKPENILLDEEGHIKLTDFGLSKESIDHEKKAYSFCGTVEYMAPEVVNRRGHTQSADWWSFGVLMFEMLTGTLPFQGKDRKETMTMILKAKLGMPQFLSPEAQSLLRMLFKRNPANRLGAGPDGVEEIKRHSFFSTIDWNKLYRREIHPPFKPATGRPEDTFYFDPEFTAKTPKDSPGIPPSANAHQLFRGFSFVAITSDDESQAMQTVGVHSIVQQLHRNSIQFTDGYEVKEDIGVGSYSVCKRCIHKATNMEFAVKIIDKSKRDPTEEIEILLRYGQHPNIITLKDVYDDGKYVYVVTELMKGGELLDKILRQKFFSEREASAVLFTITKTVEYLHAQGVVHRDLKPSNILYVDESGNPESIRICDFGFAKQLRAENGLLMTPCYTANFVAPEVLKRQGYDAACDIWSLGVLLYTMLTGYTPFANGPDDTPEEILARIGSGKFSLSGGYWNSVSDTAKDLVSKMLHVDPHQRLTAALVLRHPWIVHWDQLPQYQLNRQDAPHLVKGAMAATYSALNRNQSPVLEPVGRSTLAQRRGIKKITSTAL
Homeodomain-interacting protein kinase 1, sequence (Q86Z02 whole entry, the tested form may be a part): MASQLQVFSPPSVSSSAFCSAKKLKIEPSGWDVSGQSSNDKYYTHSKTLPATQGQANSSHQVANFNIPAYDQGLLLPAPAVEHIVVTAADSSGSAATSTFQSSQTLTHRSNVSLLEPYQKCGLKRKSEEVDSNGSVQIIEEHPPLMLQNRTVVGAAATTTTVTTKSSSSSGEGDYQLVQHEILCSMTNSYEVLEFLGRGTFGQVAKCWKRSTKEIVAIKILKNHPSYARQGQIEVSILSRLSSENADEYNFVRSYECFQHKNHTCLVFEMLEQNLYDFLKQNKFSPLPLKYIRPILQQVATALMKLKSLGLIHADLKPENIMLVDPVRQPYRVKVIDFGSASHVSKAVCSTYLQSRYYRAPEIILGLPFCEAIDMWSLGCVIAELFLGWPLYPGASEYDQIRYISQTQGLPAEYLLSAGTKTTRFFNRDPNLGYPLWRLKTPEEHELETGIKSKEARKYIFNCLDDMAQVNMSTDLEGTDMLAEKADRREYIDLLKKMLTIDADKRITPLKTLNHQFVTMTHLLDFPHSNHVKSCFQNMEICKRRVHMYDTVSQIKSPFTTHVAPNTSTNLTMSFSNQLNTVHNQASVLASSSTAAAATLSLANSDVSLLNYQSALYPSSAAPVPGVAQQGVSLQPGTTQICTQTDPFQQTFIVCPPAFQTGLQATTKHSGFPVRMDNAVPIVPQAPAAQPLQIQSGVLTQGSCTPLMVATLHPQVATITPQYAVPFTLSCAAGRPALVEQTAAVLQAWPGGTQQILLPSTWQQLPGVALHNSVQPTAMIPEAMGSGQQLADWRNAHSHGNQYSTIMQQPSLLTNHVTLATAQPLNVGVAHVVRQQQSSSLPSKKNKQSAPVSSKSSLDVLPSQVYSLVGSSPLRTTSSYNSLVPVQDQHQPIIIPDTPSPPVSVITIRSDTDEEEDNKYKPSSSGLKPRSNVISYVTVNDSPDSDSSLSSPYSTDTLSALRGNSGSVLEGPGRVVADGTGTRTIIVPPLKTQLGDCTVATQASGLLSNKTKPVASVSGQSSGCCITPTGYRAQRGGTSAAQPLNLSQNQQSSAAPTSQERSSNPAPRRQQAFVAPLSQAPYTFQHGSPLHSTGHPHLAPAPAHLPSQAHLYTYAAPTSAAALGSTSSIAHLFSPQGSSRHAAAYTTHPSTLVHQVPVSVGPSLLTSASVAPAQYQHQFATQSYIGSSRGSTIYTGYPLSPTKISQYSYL
Protein kinase C delta type, sequence (Q05655 whole entry): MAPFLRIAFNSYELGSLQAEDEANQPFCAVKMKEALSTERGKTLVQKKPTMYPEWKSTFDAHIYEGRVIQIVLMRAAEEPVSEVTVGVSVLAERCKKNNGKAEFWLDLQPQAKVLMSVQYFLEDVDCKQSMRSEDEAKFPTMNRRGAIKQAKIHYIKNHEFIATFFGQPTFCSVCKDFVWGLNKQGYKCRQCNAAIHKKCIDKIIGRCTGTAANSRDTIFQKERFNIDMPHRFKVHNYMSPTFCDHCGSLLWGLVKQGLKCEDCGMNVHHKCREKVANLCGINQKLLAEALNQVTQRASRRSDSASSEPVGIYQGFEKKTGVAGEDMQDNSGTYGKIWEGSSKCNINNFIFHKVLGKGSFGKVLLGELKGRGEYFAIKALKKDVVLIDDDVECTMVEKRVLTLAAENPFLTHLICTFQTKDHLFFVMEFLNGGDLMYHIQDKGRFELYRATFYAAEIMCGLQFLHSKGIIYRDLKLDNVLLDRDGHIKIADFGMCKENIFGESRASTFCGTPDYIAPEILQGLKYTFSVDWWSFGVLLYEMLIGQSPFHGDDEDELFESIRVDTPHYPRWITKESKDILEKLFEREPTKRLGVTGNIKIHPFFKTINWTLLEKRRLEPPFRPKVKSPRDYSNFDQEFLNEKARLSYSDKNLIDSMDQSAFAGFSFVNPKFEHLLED
Casein kinase I isoform epsilon, sequence (P49674 whole entry, canonical isoform): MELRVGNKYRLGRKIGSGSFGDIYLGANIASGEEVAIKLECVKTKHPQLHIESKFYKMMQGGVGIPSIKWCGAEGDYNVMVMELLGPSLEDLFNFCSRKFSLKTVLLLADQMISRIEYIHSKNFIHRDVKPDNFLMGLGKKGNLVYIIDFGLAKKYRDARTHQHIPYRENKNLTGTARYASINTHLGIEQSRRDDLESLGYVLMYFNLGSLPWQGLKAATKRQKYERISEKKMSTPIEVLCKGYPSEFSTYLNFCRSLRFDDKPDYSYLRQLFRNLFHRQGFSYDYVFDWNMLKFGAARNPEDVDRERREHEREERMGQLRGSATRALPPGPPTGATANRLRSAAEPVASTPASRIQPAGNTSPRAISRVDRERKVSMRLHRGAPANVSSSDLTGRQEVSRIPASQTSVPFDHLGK

C[C@@H]1C[C@H]1C(=O)N1CCN(c2cnc(C#N)c(-c3cnn(C)c3)n2)C[C@H]1C
inhibition [1]: 13%
IC50 [2]: 29.1 µM
inhibition (Rattus norvegicus [3]): -8%
inhibition [4]: -1%
inhibition (Rattus norvegicus [5]): -2%
inhibition [6]: 2%
inhibition [7]: -4%
inhibition [8]: 10%
inhibition [9]: 19%
IC50 [10]: > 100 µM
IC50 [11]: > 100 µM
IC50 [12]: > 100 µM
IC50 [13]: > 100 µM
IC50 [14]: > 100 µM
IC50 [15]: > 100 µM
IC50 [16]: > 100 µM
IC50 [17]: > 100 µM
IC50 [18]: > 100 µM
IC50 [19]: > 100 µM
IC50 [20]: > 100 µM
IC50 [21]: > 100 µM
IC50 [22]: > 100 µM
IC50 [23]: > 100 µM
IC50 [24]: > 100 µM
IC50 [25]: > 100 µM
IC50 [26]: > 100 µM
